Reference: ChEMBL document CHEMBL5335817, “Discovery and optimization of (2-naphthylthio)acetic acid derivative as selective Bfl-1 inhibitor” (Bioorg Med Chem Lett, 2024)

Key:
Bcl-2-related protein A1 [1] = target: T1, Bcl-2-related protein A1 (Homo sapiens, UniProt Q16548)
T1 sequence (Q16548 whole entry): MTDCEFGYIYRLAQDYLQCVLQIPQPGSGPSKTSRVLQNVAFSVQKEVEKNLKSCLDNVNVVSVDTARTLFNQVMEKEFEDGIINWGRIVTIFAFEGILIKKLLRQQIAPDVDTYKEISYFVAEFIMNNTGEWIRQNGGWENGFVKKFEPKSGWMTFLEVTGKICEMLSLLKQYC
Description: Inhibition of recombinant Bfl-1 (1-152) (unknown origin) by TR-FRET assay

Bcl-2-related protein A1 [2] = target: T1, Bcl-2-related protein A1; test: Inhibition of Bfl-1 (unknown origin) assessed as inhibition constant
[3] = target: T2, Induced myeloid leukemia cell differentiation protein Mcl-1 (Homo sapiens, UniProt Q07820)
T2 sequence (Q07820 whole entry, the tested form may be a part): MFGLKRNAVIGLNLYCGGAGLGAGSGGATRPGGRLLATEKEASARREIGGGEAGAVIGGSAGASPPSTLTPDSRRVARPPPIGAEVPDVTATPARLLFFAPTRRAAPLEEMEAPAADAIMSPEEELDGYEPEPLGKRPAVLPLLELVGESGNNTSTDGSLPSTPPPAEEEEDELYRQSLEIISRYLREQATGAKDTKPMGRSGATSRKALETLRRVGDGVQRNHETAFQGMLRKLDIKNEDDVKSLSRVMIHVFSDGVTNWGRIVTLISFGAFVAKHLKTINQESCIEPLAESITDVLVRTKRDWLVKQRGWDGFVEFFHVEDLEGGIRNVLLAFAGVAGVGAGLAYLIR
Description: Inhibition of Mcl-1 (unknown origin) assessed as inhibition constant

[4] = target: T2, Induced myeloid leukemia cell differentiation protein Mcl-1; test: Inhibition of GST fused Mcl-1 (unknown origin) incubated for 5 min by TR-FRET assay
Bcl-2-like protein 1 = Bcl-2-like protein 1 (Homo sapiens, UniProt Q07817); test: Inhibition of GST fused Bcl-xL (unknown origin) incubated for 5 min by TR-FRET assay
Bcl-2-like protein 1, sequence (Q07817 whole entry, the tested form may be a part): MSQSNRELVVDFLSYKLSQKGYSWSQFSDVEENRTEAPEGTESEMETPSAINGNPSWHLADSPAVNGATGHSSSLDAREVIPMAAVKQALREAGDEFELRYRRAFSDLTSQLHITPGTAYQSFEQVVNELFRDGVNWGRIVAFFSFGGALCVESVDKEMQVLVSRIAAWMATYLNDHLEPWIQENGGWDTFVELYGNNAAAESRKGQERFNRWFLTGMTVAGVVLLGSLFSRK

[5] = target: Apoptosis regulator Bcl-2 (Homo sapiens, UniProt P10415); test: Inhibition of GST fused Bcl-2 (unknown origin) incubated for 5 min by TR-FRET assay
Apoptosis regulator Bcl-2, sequence (P10415 whole entry, the tested form may be a part): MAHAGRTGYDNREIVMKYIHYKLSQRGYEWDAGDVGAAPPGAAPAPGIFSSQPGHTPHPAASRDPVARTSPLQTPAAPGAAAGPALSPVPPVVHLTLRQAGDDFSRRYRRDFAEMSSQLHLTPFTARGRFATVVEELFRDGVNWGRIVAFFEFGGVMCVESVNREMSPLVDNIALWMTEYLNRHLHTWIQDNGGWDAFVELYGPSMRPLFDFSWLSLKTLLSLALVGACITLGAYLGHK

Bcl-2-like protein 2 = target: T3, Bcl-2-like protein 2 (Homo sapiens, UniProt Q92843); test: Inhibition of GST fused Bcl-w (unknown origin) incubated for 5 min by TR-FRET assay
T3 sequence (Q92843 whole entry): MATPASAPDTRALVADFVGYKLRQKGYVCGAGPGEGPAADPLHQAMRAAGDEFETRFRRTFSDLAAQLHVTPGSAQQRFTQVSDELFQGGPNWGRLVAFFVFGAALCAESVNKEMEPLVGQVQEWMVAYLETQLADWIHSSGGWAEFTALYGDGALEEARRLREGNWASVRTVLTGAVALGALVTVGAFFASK

Bcl-2-related protein A1 [6] = target: T1, Bcl-2-related protein A1; test: Inhibition of GST-tagged Bfl-1 (unknown origin) incubated for 60 min by TR-FRET assay
Bcl-2-related protein A1 [7] = target: T1, Bcl-2-related protein A1; test: Inhibition of Bfl-1 (unknown origin) incubated for 30 min by fluorescence polarization assay

| IC50 (Bcl-2-related protein A1 [1]) | Ki (Bcl-2-related protein A1 [2]) | SMILES | further results |
| --- | --- | --- | --- |
| 8.41 µM | 3.17 µM | O=C(O)CSc1cc(NS(=O)(=O)c2ccc(Br)cc2)c2ccccc2c1O | Ki [3]: 1.91 µM |
|  | > 50 µM | COc1c(SCC(=O)O)cc(NS(=O)(=O)c2ccc(C)cc2)c2ccccc12 |  |
|  | 2.21 µM | O=C(O)CSc1cc(NS(=O)(=O)c2ccc(-c3ccccc3)cc2)c2ccccc2c1O | Ki [3]: 4.71 µM |
| 4.61 µM |  | O=C(O)CSc1cc(NS(=O)(=O)c2cccs2)c2ccccc2c1O |  |
|  |  | CCOC(=O)CS(=O)(=O)c1nc(-c2ccc(F)cc2)cc(C(F)(F)F)n1 | IC50 [4]: > 100 µM; IC50 (Bcl-2-like protein 1): > 100 µM; IC50 [5]: > 100 µM; IC50 (Bcl-2-like protein 2): > 100 µM |
|  | > 50 µM | COc1ccc(S(=O)(=O)Nc2cc(SCC(=O)O)c(OC)c3ccccc23)cc1 |  |
|  |  | COc1ccc(C(c2c(-c3ccccc3)n(O)c3ccccc23)N2CCN(C)CC2)cc1 (stereo unspecified) | IC50 (Bcl-2-related protein A1 [6]): 1.4 µM; IC50 (Bcl-2-related protein A1 [7]): 0.8 µM |
|  | > 50 µM | COC(=O)CSc1cc(NS(=O)(=O)c2ccc(-c3ccccc3)cc2)c2ccccc2c1OC |  |

| SMILES | IC50 (Bcl-2-related protein A1 [1]) | Ki (Bcl-2-related protein A1 [2]) | further results |
| --- | --- | --- | --- |
| CC(C)=CCC[C@]1(C)C=Cc2c(O)c3c(c(CC=C(C)C)c2O1)O[C@]12C(=C[C@@H]4C[C@H]1C(C)(C)O[C@@]2(C/C=C(/C)C(=O)O)C4=O)C3=O [GAMBOGIC ACID] | 0.176 µM |  |  |
